Test results taken from ChEMBL document CHEMBL1156844, “Inhibition of neuraminidase activity by polyphenol compounds isolated from the roots of Glycyrrhiza uralensis” (Bioorg Med Chem Lett, 2010).

Legend:
[1] = Inhibition of Spanish flu (A/Bervig_Mission/1/18) neuraminidase by noncompetitive inhibition assay; set-up: species or system Influenza A virus (A/Brevig Mission/1/1918(H1N1))
[2] = Inhibition of Spanish flu (A/Bervig_Mission/1/18) neuraminidase; set-up: species or system Influenza A virus (A/Brevig Mission/1/1918(H1N1))
[3] = tested on: Influenza A virus (A/Brevig Mission/1/1918(H1N1)); assay: Inhibition of Spanish flu (A/Bervig_Mission/1/18) neuraminidase at 200 uM

COc1c2c(cc3oc(=O)c4c5ccc(O)cc5oc4c13)OC(C)(C)CC2 [ISOGLYCYROL]
Ki [1]: 77.5 µM | IC50 [2]: 92.4 µM

O=C(/C=C/c1ccc(O[C@@H]2O[C@H](CO)[C@@H](O)[C@H](O)[C@H]2O[C@H]2OC[C@@](O)(CO)[C@@H]2O)cc1)c1ccc(O)cc1O [ISOLIQUIRITIN APIOSIDE]
Ki [1]: 14.2 µM | IC50 [2]: 12.9 µM

O=C(/C=C/c1ccc(O)cc1)c1ccc(O)cc1O [ISOLIQUIRITIGENIN]
Ki [1]: 9.9 µM | IC50 [2]: 9 µM

COc1cc2c(c(OC)c1CC=C(C)C)C[C@H](c1ccc(O)cc1O)CO2
inhibition [3]: 20%

COc1c(CC=C(C)C)c(O)cc2oc(-c3ccc(O)cc3O)cc12 [LICOCOUMARONE]
Ki [1]: 12.1 µM | IC50 [2]: 27.8 µM

O=C1C[C@@H](c2ccc(O[C@@H]3O[C@H](CO)[C@@H](O)[C@H](O)[C@H]3O)cc2)Oc2cc(O)ccc21 [LIQUIRITIN]
Ki [1]: 124 µM | IC50 [2]: 82.3 µM

CC(C)=CCc1c(O)cc2oc(-c3ccc(O)cc3)c(O)c(=O)c2c1O [LICOFLAVONOL]
Ki [1]: 33 µM | IC50 [2]: 20.6 µM

O=C(/C=C/c1ccc(O[C@@H]2O[C@H](CO)[C@@H](O)[C@H](O)[C@H]2O)cc1)c1ccc(O)cc1O [ISOLIQUIRITIN]
Ki [1]: 94 µM | IC50 [2]: 124 µM

COc1cc(O)c2c(=O)c(OC)c(-c3ccc(O)cc3)oc2c1 [KUMATAKENIN]
Ki [1]: 90.3 µM | IC50 [2]: 36.4 µM

O=C1C[C@@H](c2ccc(O[C@@H]3O[C@H](CO)[C@@H](O)[C@H](O)[C@H]3O[C@H]3OC[C@@](O)(CO)[C@@H]3O)cc2)Oc2cc(O)ccc21 [LIQUIRITIN APIOSIDE]
Ki [1]: 20.4 µM | IC50 [2]: 18.2 µM

COc1c(CC=C(C)C)c(O)cc2oc(=O)c3c4ccc(O)cc4oc3c12 [GLYCYROL]
Ki [1]: 2.9 µM | IC50 [2]: 3.1 µM

COc1cc(O)ccc1C(=O)/C=C/c1ccc(O)cc1
Ki [1]: 20.1 µM | IC50 [2]: 24.3 µM

CCOC(=O)C1=C[C@@H](OC(CC)CC)[C@H](NC(C)=O)[C@@H](N)C1 [OSELTAMIVIR]
IC50 [2]: 1.59 µM

COc1c(CC=C(C)C)c(O)cc2c1C[C@H](c1ccc(O)cc1O)CO2
inhibition [3]: 20%

COc1c2c(cc3oc(=O)c(-c4ccc(O)cc4O)cc13)OC(C)(CO)CC2 (stereo unspecified)
inhibition [3]: 10%

O=C1C[C@@H](c2ccc(O)cc2)Oc2cc(O)ccc21 [LIQUIRTIGENIN]
Ki [1]: 33.1 µM | IC50 [2]: 46.8 µM

COc1cc2c(c(OC)c1CC=C(C)C)C(=O)[C@H](c1ccc(O)c(CC=C(C)C)c1O)CO2
inhibition [3]: 30%

COc1cc2oc(=O)c(-c3ccc(O)cc3O)cc2c(OC)c1CC=C(C)C
inhibition [3]: 10%

COc1ccc(-c2coc3cc(O[C@@H]4O[C@H](CO)[C@@H](O)[C@H](O)[C@H]4O)ccc3c2=O)cc1
inhibition [3]: 30%
